Like-named read-outs stand apart in the source and are kept apart here.
Legend:
[1] = test system: DU145 prostate carcinoma cells; experiment: In vivo antitumor efficacy using the monoclonal antibody (DU145 xenograft, tumor growth delay); settings: COMPOUND A 40 mg/kg oral BID; for Time to reach 1 g: DU145 s.c. in athymic mice, bevacizumab 20 mg/kg i.p. days 6, 10, 14, 18, in combination COMPOUND A given between bevacizumab treatments; for T-C: delay vs control to reach tumor size 1 g
Method: Balb, Nu\Nu male mice, from Harlan (Italy), were maintained in cages with paper filter cover, food and bedding sterilized and water acidified. 2.5×10^6 DU145 prostate carcinoma cells (from the American Type Culture Collection) were injected subcutaneously in athymic mice. […] The treatment started 6 days later tumor cell injection when tumors were palpable. Bevacizumab was prepared immediately before treatment, while COMPOUND A was prepared every 3 days, on the basis of known stability of the compound.
COMPOUND A was administrated by oral route in a volume of 10 ml/kg at the dose of 40 mg/kg twice a day (BID) for 12 days (days 6 to 17). Bevacizumab was administered intraperitoneally in a volume of 10 ml/kg at the dose of 20 mg/kg on days 6, 10, 14, 18 from the days of tumor cells injection. When combined, COMPOUND A was administered in the interval between the bevacizumab treatments at days 7, 8, 9, 11, 12, 13, 15, 16, 17, 19, 20 and 21. Tumor growth and body weight were measured every 3 days. Tumor growth was assessed by caliper. The two diameters were recorded and the tumor weight was calculated according the following formula: length (mm)×width^2/2. The effect of the antitumor treatment was evaluated as the delay in the onset of an exponential growth of the tumor (see for references, Anticancer drugs 7:437-60, 1996). This delay (T-C value) was defined as the difference of time (in days) required for the treatment group (T) and the control group (C) tumors to reach a predetermined size (1 g). Toxicity was evaluated on the basis of body weigh reduction.

[2] = test system: DU145 prostate carcinoma cells; settings: Compound A 40 mg/kg oral BID; for Time to reach 1 g: DU145 s.c. in athymic mice, docetaxel 10 mg/kg i.v. days 10, 14, 18, in combination Compound A given between docetaxel treatments; for T-C: delay vs control to reach tumor size 1 g, docetaxel 10 mg/kg i.v.
Method: Balb, Nu\Nu male mice, from Harlan (Italy), were maintained in cages with paper filter cover, food and bedding sterilized and water acidified. 2.5×10^6 DU145 prostate carcinoma cells (from the American Type Culture Collection) were injected subcutaneously in athymic mice.
The treatment started 10 days later tumor cells injection when tumors were palpable. Docetaxel was prepared immediately before treatment, while COMPOUND A was prepared every 3 days, on the basis of known stability of the compound.
COMPOUND A was administered by oral route in a volume of 10 ml/kg at the doses of 40 mg/kg twice a day (BID) for 9 days (days 10 to 18). Docetaxel was administered by intravenous route in a volume of 10 ml/kg at the dose of 10 mg/kg on days 10, 14, 18 from the days of cell injection. When combined, COMPOUND A was administered in the interval between the docetaxel treatments at days 11, 12, 13, 15, 16, 17, 19, 20 and 21. Tumor growth and body weight were measured every 3 days. Tumor growth was assessed by caliper. The two diameters were recorded and the tumor weight was calculated according to the following formula: length (mm)×width^2/2. The effect of the antitumor treatment was evaluated as the delay in the onset of an exponential growth of the tumor (see for references, Anticancer drugs 7:437-60, 1996). This delay (T-C value) was defined as the difference of time (in days) required for the treatment group (T) and the control group (C) tumors to reach a predetermined size (1 g). Toxicity was evaluated on the basis of body weight reduction.

Molecule | Time to reach 1 g [1] [days] | T-C ([1]; bevacizumab 20 mg/kg i.p.) [days] | Toxicity ([1]; evaluated on the basis of body weight reduction, bevacizumab 20 mg/kg i.p.) | Time to reach 1 g [2] [days] | T-C [2] [days]
Bevacizumab: antibody to vascular endothelial growth factor | 27.93 ± 3.44 | 12.43 | 0/8 |  | 
CC(=O)O[C@@]12CO[C@@H]1C[C@H](O)[C@@]1(C)C(=O)[C@H](O)C3=C(C)[C@@H](OC(=O)[C@H](O)[C@@H](NC(=O)OC(C)(C)C)c4ccccc4)C[C@@](O)([C@@H](OC(=O)c4ccccc4)[C@H]21)C3(C)C [Docetaxel] |  |  |  | 22.25 ± 2.98 | 5.05
CNC(=O)c1nn(C)c2c1C(C)(C)Cc1cnc(Nc3ccc(N4CCN(C)CC4)cc3)nc1-2 [COMPOUND A, 8-[4-(4-methyl-piperazin-1-yl)-phenylamino]-1,4,4-trimethyl-4,5-dihydro-1H-pyrazolo[4,3-h]quinazoline-3-carboxylic acid methylamide] | 32.38 ± 2.7 | 16.88 |  | 27.4 ± 2.7 | 10.21

From patent US8084027B2, “Combinations comprising a CDK inhibitor and a growth factor antibody or anti-mitotic” (Nerviano Medical Sciences S.r.l., priority 2006, dated 2011)
